Data on 25 substances can be found in patent US7723473B2, “Peptide antagonists of TGF-beta family members and therapeutic uses thereof” (St. Louis University, priority 1997, dated 2010).

For data set [1], the system named is TGF-β receptors. The data set can be described thus: Inhibition of specific binding of 125I-TGF-β3 to TGF-β receptors in mink lung epithelial cells. To be noted: 0.1 nM 125I-TGF-β3, 2.5 hr at 0° C.; read-out: IC50 for inhibiting 125I-TGF-β3 binding to TGF-β receptors. On the procedure:
(§1) Specific binding of ^125I-labeled TGF-β1, TGF-β2, and TGF-β3 (^125I-TGF-β1, ^125I-TGF-β2, and ^125I-TGF-β3) to TGF-β receptors in mink lung epithelial cells. ^125I-TGF-β1, ^125I-TGF-β2, and ^125I-TGF-β3 were prepared by iodination of TGF-β1, TGF-β2, and TGF-β3 with Na^125I as described previously (Ref. 7). The specific radioactivities of ^125I-TGF-β1, ^125I-TGF-β2, and ^125I-TGF-β3 were 1-3×10^5 cpm/ng. Mink lung epithelial cells were grown on 24-well clustered dishes to near confluence in Dulbecco's modified Eagle medium (DMEM) containing 10% fetal calf serum. The epithelial cells were incubated with 0.1 nM ^125I-TGF-β1, ^125I-TGF-β2, or ^125I-TGF-β3 both with and without 100-fold excess of unlabeled TGF-β1, TGF-β2, or TGF-β3 in binding buffer (Ref. 7). After 2.5 hr at 0° C., the cells were washed two times with binding buffer, and the cell-associated radioactivity was determined. The specific binding of ^125I-labeled TGF-β isoforms to TGF-β receptors in the cells was calculated by subtracting non-specific binding (in the presence of 100-fold excess of the unlabeled TGF-β isoforms) from total binding. All experiments were carried out in triplicate cell cultures.

Data set [2] relates to TGF-β receptors. The data set can be described thus: Inhibition of specific binding of 125I-TGF-β1 to TGF-β receptors in mink lung epithelial cells. Conditions: for inhibition of 125I-TGF-β1 binding to TGF-β receptors (in words): various concentrations, FIG. 1D / control experiments; for TGF-β antagonist activity compared with the cysteine-containing peptides: C44S/C48S versions; for effect on 125I-TGF-β1 binding to TGF-β receptors: even at a concentration of 136 μM; for IC50 lower than that of peptide β1^25 (41-65) prior to conjugation: 125I-TGF-β1 binding; for IC50: 0.1 nM 125I-TGF-β1, 2.5 hr at 0° C., read-out: IC50 for inhibiting 125I-TGF-β1 binding to TGF-β receptors. On the procedure:
as §1, with “The specific binding of ^125I-labeled TGF-β isoforms to TGF-β receptors in the cells was calculated by subtracting non-specific binding (in the presence of 100-fold excess of the unlabeled TGF-β isoforms) from total binding.” left out

Data set [3] is described as follows: Stability in solution or gel during storage. It is filed as physicochemical. Conditions: compared with cysteine-containing peptides. An excerpt:
Preparation of peptides. The amino acid sequences of all peptides were derived from those of TGF-β1, TGF-β2, and TGF-β3. For peptides β1^25 (41-65), β2^25 (41-65), and β3^25 (41-65), other versions in which cysteine-44 and cysteine-48 were replaced by serine residues were also synthesized. […] The C44S/C48S version of peptide β1^25 (41-65) is designated SEQ ID NO:12, the C44S/C48S version of the peptide β2^25 (41-65) is designated SEQ ID NO: 13, and the C44S/C48S version of peptide of β3^25 (41-65) is designated SEQ ID NO:14. […] The peptides were synthesized using tert-butoxycarbonyl chemistry on an Applied Biosystems Model 431A peptide synthesizer and purified using Sephadex G-25 column chromatography and reverse-phase HPLC (C-8 column). The purity of the synthesized peptides were verified by automated Edman degradation on an Applied Biosystems Model 477A gas/liquid phase protein sequenator with an on-line Applied Biosystems Model 120A phenylthiohydantoin amino acid analyzer. The purity of all peptides was estimated to be ≧95%.
Preparation of IntraSite® gel containing TGF-β peptantagonist (peptide TGF-beta antagonist). 1 ml of sterile 6 mM peptide β1^25 (41-65) in phosphate buffered saline or 1 ml of sterile phosphate buffered saline was vigorously mixed with 3 ml of IntraSite® gel using two 10 ml syringes connected with a three-way connector. […] However, 1.5 mM of peptide β1^25 (41-65) was used throughout the experiments described below.

For another data set, the target named is type V TGF-β receptor (Homo sapiens, UniProt Q07954). Conditions: Ref. 6; read-out: Kd for binding to the type V TGF-β receptor; cited from earlier work.
Chain of type V TGF-β receptor (Q07954 20-4544): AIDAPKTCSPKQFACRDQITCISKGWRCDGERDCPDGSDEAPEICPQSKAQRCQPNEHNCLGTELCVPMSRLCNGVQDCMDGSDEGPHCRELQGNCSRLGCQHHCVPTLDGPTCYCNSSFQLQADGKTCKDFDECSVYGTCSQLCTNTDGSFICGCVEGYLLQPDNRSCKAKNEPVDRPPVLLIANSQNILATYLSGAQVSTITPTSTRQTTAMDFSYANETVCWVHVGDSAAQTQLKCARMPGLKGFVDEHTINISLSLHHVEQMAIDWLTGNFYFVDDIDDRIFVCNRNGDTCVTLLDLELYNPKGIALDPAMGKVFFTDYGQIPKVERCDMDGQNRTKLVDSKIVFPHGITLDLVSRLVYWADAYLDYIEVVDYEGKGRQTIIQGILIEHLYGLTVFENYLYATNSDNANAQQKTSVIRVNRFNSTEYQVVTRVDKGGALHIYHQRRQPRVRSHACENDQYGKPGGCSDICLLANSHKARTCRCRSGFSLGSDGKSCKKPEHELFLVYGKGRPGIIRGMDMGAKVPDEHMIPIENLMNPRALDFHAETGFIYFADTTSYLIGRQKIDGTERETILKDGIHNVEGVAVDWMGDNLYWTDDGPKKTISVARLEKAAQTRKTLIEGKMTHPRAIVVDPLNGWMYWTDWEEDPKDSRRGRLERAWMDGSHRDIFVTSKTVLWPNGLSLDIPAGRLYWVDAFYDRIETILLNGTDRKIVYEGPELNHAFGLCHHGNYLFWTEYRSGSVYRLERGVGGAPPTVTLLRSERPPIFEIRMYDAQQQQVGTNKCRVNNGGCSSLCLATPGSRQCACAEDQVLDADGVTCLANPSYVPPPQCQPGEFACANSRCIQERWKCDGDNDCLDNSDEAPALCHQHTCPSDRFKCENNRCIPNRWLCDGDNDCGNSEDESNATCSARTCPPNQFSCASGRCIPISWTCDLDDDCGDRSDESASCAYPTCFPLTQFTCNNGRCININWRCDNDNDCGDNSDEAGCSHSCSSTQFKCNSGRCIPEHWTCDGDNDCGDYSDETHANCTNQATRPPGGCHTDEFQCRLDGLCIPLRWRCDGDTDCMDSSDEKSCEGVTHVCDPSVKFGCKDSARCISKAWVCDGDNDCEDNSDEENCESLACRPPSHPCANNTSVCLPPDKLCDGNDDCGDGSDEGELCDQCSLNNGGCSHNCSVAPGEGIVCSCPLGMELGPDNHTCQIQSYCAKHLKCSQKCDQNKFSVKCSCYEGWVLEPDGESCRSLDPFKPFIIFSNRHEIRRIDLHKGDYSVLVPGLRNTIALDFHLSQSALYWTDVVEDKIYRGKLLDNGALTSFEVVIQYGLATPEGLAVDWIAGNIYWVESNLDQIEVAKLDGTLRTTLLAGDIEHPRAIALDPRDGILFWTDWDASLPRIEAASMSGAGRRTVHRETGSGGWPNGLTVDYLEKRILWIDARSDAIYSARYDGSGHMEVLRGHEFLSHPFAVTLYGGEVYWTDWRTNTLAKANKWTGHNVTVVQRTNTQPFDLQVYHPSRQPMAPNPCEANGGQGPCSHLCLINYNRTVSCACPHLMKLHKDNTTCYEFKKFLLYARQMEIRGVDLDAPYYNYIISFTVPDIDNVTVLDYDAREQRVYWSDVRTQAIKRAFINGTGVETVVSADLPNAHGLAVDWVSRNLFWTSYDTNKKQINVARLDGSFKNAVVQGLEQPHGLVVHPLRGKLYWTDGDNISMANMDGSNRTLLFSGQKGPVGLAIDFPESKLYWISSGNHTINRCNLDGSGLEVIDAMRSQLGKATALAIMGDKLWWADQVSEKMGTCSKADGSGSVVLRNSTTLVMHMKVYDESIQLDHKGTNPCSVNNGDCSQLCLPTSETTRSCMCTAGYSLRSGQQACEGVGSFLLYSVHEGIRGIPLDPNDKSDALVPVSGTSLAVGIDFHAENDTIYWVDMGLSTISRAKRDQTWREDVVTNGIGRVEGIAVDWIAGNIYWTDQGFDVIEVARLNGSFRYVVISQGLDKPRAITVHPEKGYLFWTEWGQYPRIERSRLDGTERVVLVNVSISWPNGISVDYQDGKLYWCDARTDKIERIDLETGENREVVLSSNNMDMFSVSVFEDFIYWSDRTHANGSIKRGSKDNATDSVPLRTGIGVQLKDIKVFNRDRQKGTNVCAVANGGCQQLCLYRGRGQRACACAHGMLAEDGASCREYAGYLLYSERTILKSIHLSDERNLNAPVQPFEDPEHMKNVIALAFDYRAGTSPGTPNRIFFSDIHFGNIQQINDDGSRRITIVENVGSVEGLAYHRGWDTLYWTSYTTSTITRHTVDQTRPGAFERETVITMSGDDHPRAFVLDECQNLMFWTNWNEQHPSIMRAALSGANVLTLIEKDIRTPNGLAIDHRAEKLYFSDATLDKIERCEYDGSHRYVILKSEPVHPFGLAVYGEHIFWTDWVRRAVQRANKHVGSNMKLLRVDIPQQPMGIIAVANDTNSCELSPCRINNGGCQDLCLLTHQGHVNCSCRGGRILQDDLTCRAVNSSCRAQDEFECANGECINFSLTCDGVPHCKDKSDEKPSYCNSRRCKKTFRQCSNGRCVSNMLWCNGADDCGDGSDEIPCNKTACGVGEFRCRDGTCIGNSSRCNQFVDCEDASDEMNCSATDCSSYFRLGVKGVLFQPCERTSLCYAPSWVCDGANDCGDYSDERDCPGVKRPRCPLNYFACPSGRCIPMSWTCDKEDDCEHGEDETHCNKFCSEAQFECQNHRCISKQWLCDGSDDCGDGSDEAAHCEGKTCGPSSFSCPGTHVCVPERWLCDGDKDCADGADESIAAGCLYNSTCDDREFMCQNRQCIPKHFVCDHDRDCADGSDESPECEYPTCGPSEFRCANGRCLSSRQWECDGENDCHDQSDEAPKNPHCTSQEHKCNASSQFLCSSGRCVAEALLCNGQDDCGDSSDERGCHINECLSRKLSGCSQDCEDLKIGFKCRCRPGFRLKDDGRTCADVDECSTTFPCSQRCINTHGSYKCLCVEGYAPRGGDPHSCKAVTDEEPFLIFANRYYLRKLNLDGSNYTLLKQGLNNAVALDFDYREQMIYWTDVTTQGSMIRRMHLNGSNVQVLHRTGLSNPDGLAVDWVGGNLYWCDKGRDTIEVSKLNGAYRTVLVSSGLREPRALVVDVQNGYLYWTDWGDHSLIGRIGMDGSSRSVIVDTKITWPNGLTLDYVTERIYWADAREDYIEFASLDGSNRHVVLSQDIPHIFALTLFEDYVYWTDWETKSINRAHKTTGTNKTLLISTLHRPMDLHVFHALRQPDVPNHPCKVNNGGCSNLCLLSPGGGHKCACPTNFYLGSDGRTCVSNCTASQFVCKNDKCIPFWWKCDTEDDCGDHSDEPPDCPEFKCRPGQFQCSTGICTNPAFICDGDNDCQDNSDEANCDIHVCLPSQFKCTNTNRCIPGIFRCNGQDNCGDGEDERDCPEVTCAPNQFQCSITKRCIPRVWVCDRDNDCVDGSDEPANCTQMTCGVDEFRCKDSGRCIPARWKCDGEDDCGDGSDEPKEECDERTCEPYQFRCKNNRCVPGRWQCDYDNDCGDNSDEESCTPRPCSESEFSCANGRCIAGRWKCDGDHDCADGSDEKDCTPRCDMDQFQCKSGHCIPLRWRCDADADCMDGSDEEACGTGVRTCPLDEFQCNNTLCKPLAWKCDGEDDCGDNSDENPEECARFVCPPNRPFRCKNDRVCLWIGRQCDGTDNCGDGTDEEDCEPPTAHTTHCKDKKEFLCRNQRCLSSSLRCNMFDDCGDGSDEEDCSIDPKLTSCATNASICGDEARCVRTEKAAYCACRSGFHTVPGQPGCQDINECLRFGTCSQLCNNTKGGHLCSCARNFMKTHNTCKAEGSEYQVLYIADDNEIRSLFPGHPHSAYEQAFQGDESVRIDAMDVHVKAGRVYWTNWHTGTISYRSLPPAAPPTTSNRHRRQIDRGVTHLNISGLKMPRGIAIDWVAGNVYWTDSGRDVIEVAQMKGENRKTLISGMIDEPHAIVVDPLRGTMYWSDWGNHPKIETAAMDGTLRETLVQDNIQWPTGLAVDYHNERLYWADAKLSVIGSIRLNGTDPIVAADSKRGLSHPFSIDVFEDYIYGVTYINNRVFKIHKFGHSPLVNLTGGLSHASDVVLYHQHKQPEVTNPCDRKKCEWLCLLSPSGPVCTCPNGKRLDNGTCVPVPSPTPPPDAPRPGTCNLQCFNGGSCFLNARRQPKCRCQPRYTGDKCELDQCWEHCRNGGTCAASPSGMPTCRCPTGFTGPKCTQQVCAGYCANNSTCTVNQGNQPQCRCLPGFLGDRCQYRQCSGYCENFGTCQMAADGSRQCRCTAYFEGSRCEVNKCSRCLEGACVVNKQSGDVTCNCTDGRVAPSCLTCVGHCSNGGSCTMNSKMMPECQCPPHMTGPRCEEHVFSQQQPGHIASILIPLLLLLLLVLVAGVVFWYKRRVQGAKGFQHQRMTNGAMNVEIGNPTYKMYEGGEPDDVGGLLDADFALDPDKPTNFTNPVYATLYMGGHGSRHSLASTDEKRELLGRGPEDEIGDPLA
Data set [4] deals with mink lung epithelial cells. The data set can be described thus: Mink lung epithelial cell growth measured by DNA synthesis without added TGF-β1 (agonist activity). It is filed as cell-based. To be noted: for EC50: no added TGF-β1, read-out: ED50 of growth inhibition as measured by DNA synthesis. On the procedure: [Methyl-^3H]thymidine Incorporation—Mink lung epithelial cells grown on 24-well clustered dishes were incubated with various concentrations of TGF-β1 in the presence and absence of peptide β1^25 (41-65) or with various concentrations of peptide β1^25 (41-65)-CA, and peptide β1^25 (41-65)-BSA in DMEM containing 0.1% fetal calf serum. After 16 hr at 37° C., the cells were pulsed with 1 μCi/ml of [methyl-^3H]thymidine for 4 hr. The cells were then washed twice with 1 ml of 10% trichloroacetic acid and once with 0.5 ml of ethanol:ether (2:1, v/v). The cells were then dissolved in 0.4 ml of 0.2 N NaOH and counted with a liquid scintillation counter.

For a further data set, the system named is PAI-1 expression. The data set can be described thus: PAI-1 expression in mink lung epithelial cells (Northern blot). It is filed as cell-based. Conditions: conjugates alone, data not shown. As to the method:
RNA Analysis—Mink lung epithelial cells were grown overnight in 12-well clustered dishes in DMEM containing 10% fetal calf serum. The medium was then changed to DMEM containing 0.1% fetal calf serum and the cells were incubated with 0.25 and 2.5 ρM TGF-β1 in the presence of various concentrations of peptide β1^25 (41-65) for 2.5 hr. Total cellular RNA was extracted using RNAzol B (Tel-Test Inc.) according to the manufacturer's protocol. RNA was electrophoresed in 1.2% agarose-formaldehyde gel and transferred to Duralon-UV membranes using 10×SSC. The membranes were probed at 42° C. with a random-primed, radiolabeled 1-kb fragment from the Hind III and NeoI digests of PAI-1 cDNA and glyceraldehyde-3-phosphate dehydrogenase (“GAPDH”) cDNA. The blots were washed with 0.1×SSC containing 0.1% SDS at room temperature.

Broadly, the IC50 is the midpoint of a concentration-inhibition curve. Take “ANFCAGACPYLWSSDTQHSRVLSLY [peptide β2^25 (41-65)]”: the IC50 in the data set on TGF-β receptors [1] is roughly 80 nM.
With “CA: carrier protein human carbonic anhydrase I conjugated without peptides, control [reference compound]”, the “inhibition of 125I-TGF-β1 binding to TGF-β receptors (in words)” value (“inhibition of 125I-TGF-β1 binding” for short) with TGF-β receptors [2] is “did not have inhibitory activity”.
As to “SEQ ID NO:12: β1^25 (41-65) with cysteine-44 and cysteine-48 replaced by serine residues (ANFSLGPSPYIWSLDTQYSKVLALY; listed as Homo sapiens)”, the “stability in solution during storage” value in data set [3] is “better stability”. In addition, the “TGF-β antagonist activity compared with the cysteine-containing peptides” value in the data set on TGF-β receptors [2] is “same TGF-β antagonist activity”.
Take “SEQ ID NO:14: β3^25 (41-65) with cysteine-44 and cysteine-48 replaced by serine residues (ANFSSGPSPYLRSADTTHSTVLGLY; listed as Homo sapiens)”: in data set [3], the “stability in solution during storage” value is “better stability”. In addition, in the data set on TGF-β receptors [2], the “TGF-β antagonist activity compared with the cysteine-containing peptides” value is “same TGF-β antagonist activity”.
For “SEQ ID NO: 13: β2^25 (41-65) with cysteine-44 and cysteine-48 replaced by serine residues (ANFSAGASPYLWSSDTQHSRVLSLY; Human)”, the “stability in solution during storage” value in data set [3] is listed as “better stability”. The “TGF-β antagonist activity compared with the cysteine-containing peptides” value in the data set with TGF-β receptors [2] is “same TGF-β antagonist activity”.
The term Kd denotes the equilibrium constant for the complex coming apart. As to “TGF-β1: transforming growth factor β1, 25-kDa dimeric protein”, the Kd with type V TGF-β receptor is roughly 0.4 nM.
With TGF-β2: transforming growth factor β2, in the data set with type V TGF-β receptor, the Kd was roughly 0.4 nM.
Regarding TGF-β3: transforming growth factor β3, in the data set with type V TGF-β receptor, the Kd was roughly 5 nM.
Regarding “peptide β1^25 (21-45): pentacosapeptide, residues 21-45 of human TGF-β1 (YIDFRKDLGWKWIHEPKGYHANFCL)”, the “effect on 125I-TGF-β1 binding to TGF-β receptors” value (“effect on 125I-TGF-β1 binding” for short) in the data set on TGF-β receptors [2] is given as “did not show any effect”.
Regarding “peptide β1^25 (31-55): pentacosapeptide, residues 31-55 of human TGF-β1 (KWIHEPKGYHANFCLGPCPYIWSLD)”, the “effect on 125I-TGF-β1 binding” value in the data set with TGF-β receptors [2] is “did not show any effect”.
As for “peptide β1^25 (51-75): pentacosapeptide, residues 51-75 of human TGF-β1 (IWSLDTQYSKVLALYNQHNPGASAA)”, the “effect on 125I-TGF-β1 binding” value with TGF-β receptors [2] was “did not show any effect”.
For the substance “peptide β1^25 (61-85): pentacosapeptide, residues 61-85 of human TGF-β1 (VLALYNQHNPGASAAPCCVPQALEP)”, the “effect on 125I-TGF-β1 binding” value with TGF-β receptors [2] is “did not show any effect”.
Turning to “peptide β1^25 (71-95): pentacosapeptide, residues 71-95 of human TGF-β1 (GASAAPCCVPQALEPLPIVYYVGRK)”, the “effect on 125I-TGF-β1 binding” value in the data set with TGF-β receptors [2] is reported as “did not show any effect”.
Turning to “peptide β1^25 (81-105): pentacosapeptide, residues 81-105 of human TGF-β1 (QALEPLPIVYYVGRKPKVEQLSNMI)”, the “effect on 125I-TGF-β1 binding” value with TGF-β receptors [2] is on record as “did not show any effect”.
Turning to β1^10 (49-58) D55A (PYIWSLATQY), the “inhibition of 125I-TGF-β1 binding” value with TGF-β receptors [2] is recorded as “similar”.
Take β1^10 (49-58) S53A (PYIWALDTQY): the “inhibition of 125I-TGF-β1 binding” value in the data set on TGF-β receptors [2] is on record as “similar”.
On the same count and under the same terms, under β1^10 (49-58) W52A (PYIASLDTQY) stands “similar”; under “β1^25 (41-65) W52A/D55A (ANFCLGPCPYIASLATQYSKVLALY)”, “did not inhibit”.
As for “β1^25 (41-65)-BSA: peptide β1^25 (41-65) cross-linked with DSS to bovine serum albumin, ~5-10 peptides per carrier protein”, the EC50 in data set [4] was roughly 100 nM. Besides, the “effects on the expression of PAI-1” value with PAI-1 expression is listed as “neither showed significant effects”. Further, the “IC50 lower than that of peptide β1^25 (41-65) prior to conjugation” value in the data set with TGF-β receptors [2] is on record as roughly 20 fold.
As for “β1^25 (41-65)-CA: peptide β1^25 (41-65) cross-linked with DSS to human carbonic anhydrase I, ~5-10 peptides per carrier protein”, in data set [4] (0.2 μM conjugate), the “growth inhibition induced by conjugate” value was 30-40%. Further, the EC50 in data set [4] was roughly 100 nM. Also, the “effects on the expression of PAI-1” value with PAI-1 expression was “neither showed significant effects”. For the same substance, in the data set with TGF-β receptors [2], the IC50 is roughly 50 nM and the “IC50 lower than that of peptide β1^25 (41-65) prior to conjugation” value is recorded as roughly 20 fold.
Turning to β2^10 (49-58) D55A (PYLWSSATQH), the “inhibition of 125I-TGF-β1 binding” value with TGF-β receptors [2] is “failed to inhibit”.
Regarding β2^10 (49-58) S53A (PYLWASDTQH), the IC50 in the data set with TGF-β receptors [2] was roughly 40000 nM.
For the substance β2^10 (49-58) W52A (PYLASSDTQH), in the data set with TGF-β receptors [2], the “inhibition of 125I-TGF-β1 binding” value is given as “failed to inhibit”.
“β3^10 (49-58): decapeptide, residues 49-58 of TGF-β3 (SEQ ID NO:9) (PYLRSADTTH; listed as Homo sapiens)”: the “inhibitory activity on 125I-TGF-β1 binding” value in the data set with TGF-β receptors [2] (concentrations up to ~300 μM) is reported as “did not show any inhibitory activity”.
Regarding “β3^25 (41-65) R52A/D55A (ANFCSGPCPYLASAATTHSTVLGLY)”, in the data set on TGF-β receptors [2], the “inhibition of 125I-TGF-β1 binding” value was “did not inhibit”.
